These results are taken from patent publication US9131689B2, “Use of a 1-N-(halo-3-pyridylmethyl)-N-methylamino-1-alkylamino-2-nitroethylene derivative for preparing a topical veterinary pharmaceutical composition for combating external parasites” (priority 2007, dated 2015).

Each structure is given as a SMILES string. Like-named read-outs stand apart in the source and are kept apart here. Bounds are passed on as bounds.

What all share (format): in vivo
Series [1] relates to Ctenocephalides felis. In words: Rapidity of action of topical compositions against flea infestation in cats (Example 1). As to the method: In this example, a comparative study of the efficacy of nitenpyram (rapidity of action) administered topically, alone or in combination with fipronil, compared with fipronil administered alone, against cat fleas, was carried out.
It is a randomized, blind, controlled efficacy study carried out in parallel on 4 groups of six cats, according to the recommendations of the guidelines of the Committee for Veterinary Medicinal Products (CVMP): “Guidelines for the testing and evaluation of the efficacy of antiparasitic substances for the treatment and prevention of tick and flea infestations in dogs and cats”, EMEA/CVMP/005/00-FINAL-Rev.1.
The cats used in this study were male or female, adult domestic cats more than 6 months old, of mixed breeds, but mainly of short-hair European breed, weighing between 2 and 5 kg. […]
6 days before the beginning of the study (D=−6), all the cats were infested with approximately 100 laboratory fleas, strain Ctenocephalides felis, of male or female gender. The fleas were then counted on the day before the treatment (D=−1) and then at different times after application of the treatment (1, 4, 12 and 24 hours after treatment).
To do this, all the fleas present on an animal are harvested by combing the cat and then counting after combing. The number of live fleas is thus determined. […]

Series [2] has as its system Ctenocephalides felis. In words: Supplementary study of efficacy over time after weekly flea re-infestation of cats (Example 3). As to the method: In this example, a comparative study of the efficacy, over time, of nitenpyram administered topically, alone or in combination with fipronil, compared with fipronil administered alone, against cat fleas, was carried out. It is the continuation of the study of example 1 using compositions A, B and C.
At a regular interval after the first administration (D=0), all the cats were infested with approximately 100 laboratory fleas, strain Ctenocephalides felis, of male or female gender. The re-infestations were thus carried out at D=7, D=14, D=21, D=28, D=35, D=42, D=49, D=56 and D=63. The fleas were then counted various times after application of the treatment (at 2, 4 and 12 hours after re-infestation at D=7, D=14, D=21 and D=28; at 4, 8 and 12 hours after re-infestation at D=35 and D=42; at 12, 24 and 48 hours after re-infestation at D=49; at 24 and 48 hours after re-infestation at D=56 and, finally, at 48 hours after re-infestation at D=63).
To do this, all the fleas present on an animal were harvested by combing the cat, and then counted after combing. The number of live fleas is thus determined. After each count, the live fleas are put back on the cat. […]

Series [3] can be described thus: Comparative pharmacokinetics of nitenpyram administered orally and topically to cats (Example 4). To be noted: for Tmax: read-out: Tmax: time at which the maximum concentration of nitenpyram in the plasma is observed; for AUC: read-out: AUCtot: area under the curve of the nitenpyram concentration over time determined between t0 and the final measurement; for half-life: read-out: Thalf: half-life time (converted); for Cmax: read-out: Cmax: maximum amount of nitenpyram in the plasma. As to the method:
In this example, a comparative study of the pharmacokinetics of nitenpyram administered topically and orally to cats was carried out.
The cats used in this study were prepared under the same conditions as those described in example 1.
It was verified, beforehand, that no trace of nitenpyram was detected in the plasma of the cats.
Ten young adult cats weighing between 2 and 6 kg are divided up into two groups: • a first group of 5 cats (female) received a single topical administration on the back between the shoulder blades at the beginning of the study; the topical composition is a solution containing 10% of nitenpyram (100 mg of nitenpyram per ml) and the amount administered is 0.5 ml per cat. • a second group (4 females and one male) received a single oral administration of the commercial product Capstar® given at the beginning of the study. The Capstar® product is a tablet comprising 11.4 mg of nitenpyram.
Blood samples were taken regularly, and centrifuged at 3000 rpm for 10 minutes at 4° C., the pellet is removed and the plasma is recovered for analysis.
The plasma concentration of nitenpyram is determined by the UPLC-MS/MS (Ultra-Performance Liquid Chromatography coupled to tandem mass spectrometry) method on an Acquity BEH C18 column and a Waters Quattro Premier XE mass […].

[4] abbreviates: both sexes, in vivo, oral administration, Capstar tablet 11.4 mg nitenpyram.
[5] abbreviates: female, plasma, topical or ocular, 50 mg per cat, topical administration, 10% solution 0.5 ml per cat.

The half-life is the time needed for the level to fall by half in the phase considered. By Cmax is commonly meant the highest concentration seen after dosing.

As for `CCN(Cc1ccc(Cl)nc1)/C(=C/[N+](=O)[O-])NC` [nitenpyram, (E)-N-(6-chloro-3-pyridylmethyl)-N-ethyl-N′-methyl-2-nitrovinylidenediamine], the “effect of topical administration on cat fleas” value is “lethal effect on the cat fleas” in series [1]; “rapid and sustained lethal effect on cat fleas” in series [2]. Moreover, the Tmax in series [3] (both sexes, cat, in vivo, oral administration, Capstar tablet 11.4 mg nitenpyram) amounted to 1.3 h; in series [3] (setting [5]), 15 h. Also, the AUC was found to be 76800 ng·h/mL in series [3] (setting [4]) and 86400 ng·h/mL in series [3] (female, in vivo, topical or ocular, 50 mg per cat, topical administration, 10% solution 0.5 ml per cat). Besides, the half-life was 9.8 h in series [3] (setting [4]) and 69.1 h in series [3] (setting [5]). Further, the Cmax is more than 5800 ng/mL in series [3] (both sexes, in vivo, po, 11.4 mg, oral administration, Capstar tablet 11.4 mg nitenpyram) and 1290 ng/mL in series [3] (setting [5]). Moreover, the “tolerance of oral administration” value in series [3] (oral, Capstar tablet) was “well tolerated”. Besides, the “half-life time administered topically relative to orally” value in series [3] (topical vs oral) was “more than 7 times”. Also, in series [3] (topical, 10% solution 0.5 ml per cat), the “tolerance of topical administration” value was “well tolerated locally”.
